Data set [1] deals with cGMP-specific 3',5'-cyclic phosphodiesterase (Homo sapiens, UniProt O76074). Description: Phosphodiesterase 5 activity of human corpus cavernosum.
A short description of data set [2]: pKa value of the compound. In kind it is physicochemical.
For a further data set, the species on record is Homo sapiens. Description: Selectivity for human retinal cone PDE-6 and human corpus cavernosum PDE-5.
Data set [3] can be described thus: Oral bioavailability in rat. In kind it is ADME, organism-based. As to conditions: in vivo.
For data set [4], the system named is Canis familiaris. The data set can be described thus: In vivo effect on erectile dysfunction in dogs after intravenous dose. In kind it is functional. The note with it: Canis lupus familiaris.
Data set [5] deals with Canis familiaris. Description: In vivo efficacy in dogs. The format is functional. As to conditions: Canis lupus familiaris.
Data set [6] in a line: pKa of the compound. The format is physicochemical.
For data set [7], the system named is Canis familiaris. The data set can be described thus: In vivo efficacy in dogs. In kind it is functional. As to conditions: Canis lupus familiaris.

Molecules are shown by their SMILES.

For orientation: Ki means a measure of affinity in units of concentration, obtained from inhibition or displacement. A low value points to tighter binding. The compound `Oc1ccc(-c2cnc(N3Cc4c(nc5ccccc5c4O)C3c3ccc4c(c3)CCO4)nc2)cc1` (stereo not drawn) came in with a Ki in data set [1] of 1.75 nM.
For orientation: pKa means the negative logarithm of the acid dissociation constant. Low readings indicate a stronger acid or weaker base, high ones a weaker acid or stronger base. The compound `COc1ccc(-c2cnc(N3CC(=O)c4c([nH]c5ccccc45)C3c3ccc4c(c3)OCO4)nc2)cc1OC` (stereo not drawn) came in with a pKa in data set [2] of around 14. In data set [1], this compound showed a Ki of 8.86 nM.
`CCN(CC)CCOc1ccc(-c2cnc(N3Cc4c(nc5ccccc5c4O)C3c3ccc4c(c3)CCO4)nc2)cc1` (stereo not drawn) gave a Ki in data set [1] of 0.53 nM. In other words, the sub-nanomolar range.
On the same count and under the same terms, the figure for `Oc1c2c(nc3ccccc13)C(c1ccc3c(c1)CCO3)N(c1ncc(-c3ccc(OCCN4CCOCC4)cc3)cn1)C2` (stereo not drawn) is 0.29 nM.
Broadly, the bioavailability is dose-corrected exposure relative to a reference, in per cent. Consider `COc1ccc(-c2cnc(N3Cc4c(nc5ccccc5c4O)C3c3ccc4c(c3)CCO4)nc2)cc1` (stereo not drawn), for which the Ratio in the data set filed under Homo sapiens is 55.9. In data set [3], this compound came in with a bioavailability of 20%. For the same compound, in data set [1], the Ki stood at 0.4 nM.
In the case of `COc1ccc(-c2cnc(N3Cc4c(nc5ccccc5c4O)C3c3ccc4c(c3)CCC4)nc2)cc1OC` (stereo not drawn), the Ratio in the data set listed under Homo sapiens is 2.14. In data set [1], the Ki worked out at 1.14 nM.
In general, ED50 refers to the dose that gives a 50% effect, or the effect in half of the subjects. High values mean a need for a large dose, low ones an effect at a small dose. Take `COc1ccc(-c2cnc(N3Cc4c(nc5ccccc5c4O)[C@H]3c3ccc4c(c3)CCO4)nc2)cc1`: the Ratio in the data set listed under Homo sapiens amounted to 27. Further, the 50% effect level in the data set with Canis familiaris [4] (ED50) was put at a dose of 9.6 µg/kg. Further, affinity in data set [1] was put at a Ki of 0.23 nM.
In the case of `Oc1c2c(nc3ccccc13)C(c1ccc3c(c1)OCO3)N(c1ncccn1)C2` (stereo not drawn), the Ratio in the data set listed under Homo sapiens was 7.4. In data set [1], the Ki turned out to be 1.2 nM.
For `COc1ccc(-c2cnc(N3Cc4c(nc5ccccc5c4O)C3c3ccc4c(c3)OCO4)nc2)cc1` (stereo not drawn), the Ratio in the data set listed under Homo sapiens worked out at 18.5. In data set [1], the Ki worked out at 0.31 nM.
Turning to `COc1ccc(-c2cnc(N3Cc4c(nc5ccccc5c4O)C3c3ccc(OC)c(OC)c3)nc2)cc1OC` (stereo not drawn), the affinity in data set [1] corresponds to a Ki of 24.7 nM. This lies in the double-digit nanomolar range.
With `COc1ccc(-c2cnc(N3Cc4c(nc5ccccc5c4O)[C@H]3c3ccc4c(c3)OCO4)nc2)cc1OC`, the Ratio in the data set filed under Homo sapiens amounted to 0.59. Further, the ED50 with Canis familiaris [5] came out at 22.4 µg/kg. In addition, the pKa in data set [6] turned out to be 9. Also, the Ki in data set [1] amounted to 0.21 nM.
`CCCc1nn(C)c2c(=O)[nH]c(-c3cc(S(=O)(=O)N4CCN(C)CC4)ccc3OCC)nc12` came in with an ED50 in the data set on Canis familiaris [7] of 5.1 µg/kg. This compound displayed a bioavailability in data set [3] of 11%.
Take `COc1ccc(-c2cnc(N3Cc4c(nc5ccccc5c4O)C3c3ccc4c(c3)OCCO4)nc2)cc1` (stereo not drawn): the Ratio in the data set filed under Homo sapiens was 3.07. In addition, the Ki in data set [1] came to 0.52 nM.
The like results for `Oc1c2c(nc3ccccc13)C(c1ccc3c(c1)CCO3)N(c1ncccn1)C2` (stereo not drawn) were, in that order, 310 and 1.08 nM.

The values are drawn from ChEMBL document CHEMBL1135774 (J Med Chem, 2002).
